Test results published in publication PMC12135066, “Design and Preclinical Evaluation of Novel uPAR-Targeting Radiopeptides Modified with an Albumin-Binding Entity” (Molecular Pharmaceutics, 2025).
Where two headings read alike, the source gives them in different places.

Legend:
human uPAR [1] = molecular target: T1, human uPAR (Homo sapiens, UniProt Q03405); conditions: reported value; ref not printed (citation marks lost in b4); read-out: binding affinity to human uPAR (KD); cited from earlier work
T1 construct: host or cells: HEK cells (HEK-uPAR)
Description: The expression pattern of uPAR makes it a relevant tumor-associated marker for targeting with diagnostic and therapeutic radiopharmaceuticals. Previously, a synthetic uPAR-binding nonapeptide, referred to as AE105, was identified using phage display methodologies and affinity maturation techniques. , The reported strong binding affinity to human uPAR (K D = 0.4 nM) made AE105 an interesting candidate for the development of nuclear imaging agents and radiotherapeutics. , AE105 was conjugated with various macrocyclic chelators to enable the coordination of copper-64, gallium-68, and lutetium-177 ...

in vitro [2] = conditions: human, plasma
in vivo = conditions: female, mouse, total radioactivity
Description: (§1) All applicable international, national, and/or institutional guidelines for the care and use of laboratory animals were followed, and the herein reported experiments were carried out according to the guidelines of the Swiss Regulations for Animal Welfare. The preclinical studies were ethically approved by the Cantonal Committee of Animal Experimentation and permitted by the responsible cantonal authorities (License No. 75721). Five-week-old female CD1/nude (Crl:CD1-Foxn ^ nu ) and female immunocompetent FVB (FVB/NCrl) mice were obtained from Charles River Laboratories (Sulzfeld, Germany). All mice were acclimatized for at least 7 days, receiving standard rodent chow ad libitum before being included in the reported studies. The CD1/nude mice were subcutaneously inoculated with HEK-uPAR cells (7 × 10^6 cells in 100 μL PBS) on the right shoulder. […] Typically, it took 3–11 weeks to reach xenograft volumes of 40–600 mm^3 at the time of testing the tissue distribution of the radiopeptides. The immunocompetent FVB mice were used for testing the in vivo stability of the radiopeptides.
(§2) The mice were injected with the radiopeptides (5 MBq, 0.5 nmol, 100 μL) in saline containing 0.05% BSA and sacrificed at 4 and 24 h after injection of the radiopeptides. Selected tissues and organs were collected, weighed, and measured with the γ-counter (1480 Wizard, PerkinElmer). […] A p-value of <0.05 was considered a statistically significant difference (GraphPad Prism software, version 8.3.1).
(§3) Decay-corrected data is shown as average ± SD of n = 3 animals of % injected activity per gram (IA/g) tissue.

physchem = conditions: pH 7.4
Description: The radiopeptides diluted in phosphate-buffered saline (PBS) pH 7.4 (25 μL, ∼0.5 MBq, 0.01 nmol) were added to a mixture of PBS pH 7.4 (1475 μL) and n-octanol (1500 μL). The vials were vortexed vigorously for 1 min, followed by centrifugation (560 rcf, 6 min) for phase separation. Aliquots were taken from each phase and measured in a γ-counter (1480 Wizard, PerkinElmer). The distribution coefficients were calculated as the logarithmic value of the ratio of counts per minute (cpm) measured in the n-octanol phase relative to the cpm measured in the PBS phase.
Methods: The logD value of all radiopeptides was determined in a mixture of n-octanol and phosphate
buffered saline (PBS) pH 7.4 using phase separation followed by liquid-liquid extraction.
polystyrene radioimmunoassay (RIA) tubes were prepared for each radiopeptide with 1.5 mL n-octanol
and 1.475 mL PBS pH 7.4. The RIA tubes were rigorously vortexed and subsequently let to stand so
that the phase separation could take place. The radiopeptides (50 MBq/nmol) were diluted with PBS
pH 7.4 to obtain an activity concentration of 10 MBq/0.5 mL. A volume of 25 μL of these solutions
was added to each RIA tube (25 µL, ~0.5 MBq, 0.01 nmol) followed by vortexing for 1 min.
separation was achieved by centrifugation at 560 rcf for 6 min. The activity in the n-octanol and PBS
phase, respectively, was measured in a γ-counter (Wallac Wizard 1480, PerkinElmer).
coefficients were calculated as the logarithm of the ratio of counts per minute (cpm) measured in the n-
octanol phase relative to the cpm measured in the PBS pH 7.4 phase.
as described above three independent times for each radiopeptide.

in vitro [3] = conditions: mouse, plasma
Description: The radiopeptides (50 MBq/nmol) stabilized with L-ascorbic acid were diluted in mouse and human blood plasma and incubated at 37 °C. Aliquots were taken after 1, 4, and 24 h and analyzed using reversed-phase thin-layer chromatography (TLC) (Supporting Information).
aProduct peak expressed as percentage of the sum of integrated peak areas of the entire chromatogram relative to
the value obtained immediately after labeling (set as 100%), average ± standard deviation (SD) (n=3).
Stability of the Radiopeptides in Mouse and Human Blood Plasma
Purpose: The stability of the radiopeptides was assessed in mouse and human blood plasma as an
indication for their in vivo stability.
Methods: The radiopeptides (50 MBq/nmol) stabilized with L-ascorbic acid were diluted in mouse
blood plasma (Lot: 32321, Rockland Immunochemicals Inc., U.S.A.) or in human blood plasma
(Stiftung Blutspende SRK Aargau -Solothurn, Switzerland) at a concentration of 10 MBq/200 µL and
incubated at 37 °C over a 24 h time period. Control samples were prepared by diluting the radiopeptides
in saline at the same activity concentration. Aliquots of each dilution were taken after 1 h, 4 h, and 24 h
(2 µL, ~100 kBq) and investigated employing thin layer chromatography (TLC) methods on reversed-
phase TLC plates (MERCK Analytical Chromatography, TLC Silica gel 60 RP -18 F254s) as stationary
phase and a 3/7 (v/v) mixture of acetonitrile /citrate buffer (0.1 M, pH 5.5) as mobile phase. A dilution
of [177Lu]LuCl3/HCl 0.04 M (10 MBq/200 µL) was added on each TLC plate. The developed and dried
TLC plates were exposed to a phosphor screen (Super resolution screen PSR10450013, PerkinElmer)
for 1 min. The screen was read with a Cyclone Plus phosphor imager (PerkinElmer) and the peak
quantification was performed using OptiQuant Software (version 5.0).

human uPAR [4] = molecular target: T1, human uPAR; experiment: uPAR-binding affinity (KD values), saturation experiments with HEK-uPAR cells; conditions: saturation binding on HEK-uPAR cells, on ice (4 °C) 1 h, 1–1600 nM radiopeptide, ± AE105 40 µM; γ-counter; nonlinear regression; average ± SD, n=3
Description: To determine the uPAR-binding affinity of the radiopeptides, saturation experiments were performed using HEK-uPAR cells in 48-well plates (Supporting Information). The cells were incubated on ice for 1 h in the presence or absence of excess AE105 (final concentration of 40 μM) together with the respective radiopeptide at a concentration range of 1–1600 nM. After rinsing the cells with PBS, they were lysed with an aqueous NaOH solution (1 M, 600 μL), transferred to radioimmunoassay tubes, and measured in a γ-counter (1480 Wizard, PerkinElmer). The K D values were determined by plotting the specific binding (values of samples incubated without AE105 minus the values of samples incubated with AE105) against the molar concentration of the added peptide. A nonlinear regression analysis was performed using GraphPad Prism software (version 8.3.1). The results were expressed as average ± SD of n = 3 independently performed experiments. […]
7. Determination of uPAR-Binding Affinity (KD Values)
Purpose: The uPAR-binding affinity of the radiopeptides were determined to investigate the impact of structural changes on the receptor binding.
Methods: HEK-uPAR cells were seeded in poly-D-lysine-coated 48-well plates (0.25 × 10 6 in 0.5 mL per well) using DMEM cell culture medium with supplements. The cells were incubated at 37 °C and 5% CO2 overnight to allow adhesion and growth. After removing the supernatant, the well plates with HEK-uPAR cells were placed on ice to prevent internalization of the radiopeptides. The cells were rinsed with cold PBS (0.5 mL, pH 7.4) followed by the addition of DMEM cell culture medium without supplements (450 µL/well) in the presence or absence of AE105 ( final concentration 40 µM) as a receptor-blocking agent. The radiopeptides (5 MBq/nmol) were diluted in PBS to obtain peptide concentrations ranging from 10 ‒16000 nM. From each dilution, 50 µL were added to each well to obtain final peptide concentrations of 1 nM to 1600 nM. The cells were incubated at 4 °C for 1 h before rinsing twice with PBS (0.5 mL, pH 7.4). The cells were lysed using an aqueous NaOH solution (1 M, 600 µL) and the lysates were transferred to RIA tubes for counting the activity in a γ-counter (1480 Wizard, PerkinElmer) . The KD values were determined by plotting specific binding (total binding minus unspecific binding) against the molar concentration of the added radiopeptide using GraphPad Prism (version 8.3.1). the results were then expressed as average K D values ± SD of n = 3 independent […]
Results: The results are reported in the main article.

[5] = tested on: HEK-uPAR xenograft-bearing nude mice; conditions: mouse, in vivo
Description: as §1, §2, §3

[6] = CD1/nude (Crl:CD1-Foxn nu), 0.5 nmol, Blood
[7] = CD1/nude, 5 MBq (0.5 nmol), Blood
[8] = CD1/nude, 5 MBq (0.5 nmol), Bone
[9] = CD1/nude, 5 MBq (0.5 nmol), Brain
[10] = CD1/nude, 5 MBq (0.5 nmol), HEK-uPAR xgft
[11] = CD1/nude, 5 MBq (0.5 nmol), Heart
[12] = CD1/nude, 5 MBq (0.5 nmol), Intestines
[13] = CD1/nude, 5 MBq (0.5 nmol), Kidneys
[14] = CD1/nude, 5 MBq (0.5 nmol), Liver
[15] = CD1/nude, 5 MBq (0.5 nmol), Lung
[16] = CD1/nude, 5 MBq (0.5 nmol), Muscle
[17] = CD1/nude, 5 MBq (0.5 nmol), Pancreas
[18] = CD1/nude, 5 MBq (0.5 nmol), Salivary glands
[19] = CD1/nude, 5 MBq (0.5 nmol), Spleen
[20] = CD1/nude, 5 MBq (0.5 nmol), Stomach
[21] = CD1/nude (Crl:CD1-Foxn nu), 0.5 nmol, HEK-uPAR xgft

T1 sequence (Q03405 23-335): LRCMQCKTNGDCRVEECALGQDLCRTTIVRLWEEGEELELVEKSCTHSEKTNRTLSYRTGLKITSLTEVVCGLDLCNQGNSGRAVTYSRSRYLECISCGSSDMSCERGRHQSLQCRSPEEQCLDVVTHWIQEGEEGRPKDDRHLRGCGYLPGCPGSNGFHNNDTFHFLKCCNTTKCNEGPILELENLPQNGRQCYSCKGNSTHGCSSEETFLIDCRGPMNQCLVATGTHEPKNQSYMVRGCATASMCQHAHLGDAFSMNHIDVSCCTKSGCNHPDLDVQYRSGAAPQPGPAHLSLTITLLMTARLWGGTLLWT

| Compound | remaining at 1 h, 10 MBq/200 µL (in vitro [2]) | remaining at 4 h, 10 MBq/200 µL (in vitro [2]) | remaining at 24 h, 10 MBq/200 µL (in vitro [2]) | tissue uptake at 24 h (in vivo; [6]) | tissue uptake at 4 h (in vivo; [7]) | tissue uptake at 4 h (in vivo; [8]) | tissue uptake at 24 h (in vivo; [8]) | tissue uptake at 4 h (in vivo; [9]) | tissue uptake at 24 h (in vivo; [9]) | tissue uptake at 4 h (in vivo; [11]) | tissue uptake at 24 h (in vivo; [11]) | tissue uptake at 4 h (in vivo; [12]) | tissue uptake at 24 h (in vivo; [12]) | tissue uptake at 4 h (in vivo; [13]) | tissue uptake at 24 h (in vivo; [13]) | tissue uptake at 4 h (in vivo; [14]) | tissue uptake at 24 h (in vivo; [14]) | tissue uptake at 4 h (in vivo; [15]) | tissue uptake at 24 h (in vivo; [15]) | tissue uptake at 4 h (in vivo; [16]) | further results |
| --- | --- | --- | --- | --- | --- | --- | --- | --- | --- | --- | --- | --- | --- | --- | --- | --- | --- | --- | --- | --- | --- |
| Asp-Cha-Phe-ser-arg-Tyr-Leu-Trp-Ser (DAFSRYLWS; Printed as Asp-Cha-Phe-ser-arg-Tyr-Leu-Trp-Ser. Residue 2 is Cha (L-beta-cyclohexylalanine, written as parent Ala, as in PDB 1YWH entity 2); D-Ser4; D-Arg5; Linear; C-terminal form (acid or amide) not) [AE105] |  |  |  |  |  |  |  |  |  |  |  |  |  |  |  |  |  |  |  |  | Kd (human uPAR [1]): 0.4 nM |
| CC(C)C[C@H](NC(=O)[C@H](Cc1ccc(O)cc1)NC(=O)[C@@H](CCCNC(=N)N)NC(=O)[C@@H](CO)NC(=O)[C@H](Cc1ccccc1)NC(=O)[C@H](CC1CCCCC1)NC(=O)[C@H](CC(=O)O)NC(=O)[C@H](CCCCNC(=O)CCOCCOCCOCCOCCNC(=O)c1ccc(CNC(=O)CCCc2ccc(I)cc2)cc1)NC(=O)CN1CCN(CC(=O)O)CCN(CC(=O)O)CCN(CC(=O)O)CC1)C(=O)N[C@@H](Cc1c[nH]c2ccccc12)C(=O)N[C@@H](CO)C(N)=O [[^177Lu]Lu-uPAR-03, metal not drawn] | 100 ± 1% | 99 ± 1% | 99 ± 2% | 13 ± 1 %ID/g | 15 ± 1 %ID/g | 1.5 ± 0.3 %ID/g | 1.8 ± 0.3 %ID/g | 0.31 ± 0.05 %ID/g | 0.3 ± 0.01 %ID/g | 4.8 ± 0.5 %ID/g | 5.2 ± 0.1 %ID/g | 1.8 ± 0.1 %ID/g | 2 ± 0.1 %ID/g | 4.1 ± 0.3 %ID/g | 4.7 ± 0.2 %ID/g | 3.1 ± 0.4 %ID/g | 3.2 ± 0.2 %ID/g | 7.5 ± 0.5 %ID/g | 7.7 ± 0.7 %ID/g | 1.3 ± 0.1 %ID/g | tissue uptake at 4 h (in vivo; [10]): 4 ± 0.3 %ID/g; tissue uptake at 24 h (in vivo; [10]): 7.5 ± 0.2 %ID/g; tissue uptake at 24 h (in vivo; [16]): 1.5 ± 0.1 %ID/g; tissue uptake at 4 h (in vivo; [17]): 1.7 ± 0.1 %ID/g; tissue uptake at 24 h (in vivo; [17]): 1.9 ± 0.2 %ID/g; tissue uptake at 4 h (in vivo; [18]): 3.4 ± 0.4 %ID/g; tissue uptake at 24 h (in vivo; [18]): 3.6 ± 0.2 %ID/g; tissue uptake at 4 h (in vivo; [19]): 2.2 ± 0.2 %ID/g; tissue uptake at 24 h (in vivo; [19]): 3 ± 0.2 %ID/g; tissue uptake at 4 h (in vivo; [20]): 1.6 ± 0.1 %ID/g; tissue uptake at 24 h (in vivo; [20]): 1.8 ± 0.1 %ID/g; logD (physchem): 0.37 ± 0.14; remaining at 1 h, 10 MBq/200 µL (in vitro [3]): 100%; remaining at 4 h, 10 MBq/200 µL (in vitro [3]): 99 ± 1%; remaining at 24 h, 10 MBq/200 µL (in vitro [3]): 98 ± 1%; Kd (human uPAR [4]): 56 ± 8 nM |
| CC(C)C[C@H](NC(=O)[C@H](Cc1ccc(O)cc1)NC(=O)[C@@H](CCCNC(=N)N)NC(=O)[C@@H](CO)NC(=O)[C@H](Cc1ccccc1)NC(=O)[C@H](CC1CCCCC1)NC(=O)[C@H](CC(=O)O)NC(=O)[C@H](CCCCNC(=O)CCOCCOCCOCCOCCNC(=O)CCCc1ccc(I)cc1)NC(=O)CN1CCN(CC(=O)O)CCN(CC(=O)O)CCN(CC(=O)O)CC1)C(=O)N[C@@H](Cc1c[nH]c2ccccc12)C(=O)N[C@@H](CO)C(N)=O [[^177Lu]Lu-uPAR-02, metal not drawn] | 100 ± 1% | 99 ± 1% | 99 ± 1% | 6 ± 0.5 %ID/g | 16 ± 1 %ID/g | 1.8 ± 0.2 %ID/g | 1.2 ± 0.1 %ID/g | 0.34 ± 0.03 %ID/g | 0.13 ± 0.02 %ID/g | 4.8 ± 0.2 %ID/g | 2.5 ± 0.3 %ID/g | 1.8 ± 0.2 %ID/g | 0.84 ± 0.13 %ID/g | 5.5 ± 0.2 %ID/g | 3.6 ± 0.2 %ID/g | 2.8 ± 0.3 %ID/g | 1.6 ± 0.2 %ID/g | 7.2 ± 0.3 %ID/g | 4 ± 0.2 %ID/g | 1.4 ± 0.1 %ID/g | fold higher activity retention in the HEK-uPAR xenograft than [177Lu]Lu-DOTA-AE105 [5]: over 10 fold; fold higher xenograft-to-kidney ratio than [177Lu]Lu-DOTA-AE105 [5]: > 3 fold; tissue uptake at 4 h (in vivo; [21]): 11 ± 2 %ID/g; tissue uptake at 24 h (in vivo; [21]): 10 ± 3 %ID/g; tissue uptake at 24 h (in vivo; [16]): 0.9 ± 0.06 %ID/g; tissue uptake at 4 h (in vivo; [17]): 1.8 ± 0.1 %ID/g; tissue uptake at 24 h (in vivo; [17]): 0.92 ± 0.06 %ID/g; tissue uptake at 4 h (in vivo; [18]): 3.2 ± 0.4 %ID/g; tissue uptake at 24 h (in vivo; [18]): 1.8 ± 0.2 %ID/g; tissue uptake at 4 h (in vivo; [19]): 2.2 ± 0.1 %ID/g; tissue uptake at 24 h (in vivo; [19]): 2 ± 0.2 %ID/g; tissue uptake at 4 h (in vivo; [20]): 1.6 ± 0.3 %ID/g; tissue uptake at 24 h (in vivo; [20]): 0.69 ± 0.03 %ID/g; logD (physchem): 0.25 ± 0.02; remaining at 1 h, 10 MBq/200 µL (in vitro [3]): 100 ± 1%; remaining at 4 h, 10 MBq/200 µL (in vitro [3]): 98 ± 1%; remaining at 24 h, 10 MBq/200 µL (in vitro [3]): 98 ± 2%; Kd (human uPAR [4]): 32 ± 12 nM |
